Key:
Format in all cases: biochemical
[1] = biological target: T1, fructofuranosidase of S. occidentalis (pure enzyme F-3) (Schwanniomyces occidentalis, UniProt P24133); test: Transfructosidase (transglycosylation) activity of pure enzyme F-3 on sucrose, HPLC; conditions: for Composition of the system: final reaction time (144 h), F-3 0.5 U/ml, 50° C.
T1 construct: the enzyme object of the invention is extracellularly released; endogenous in cells; host or cells: Schwanniomyces occidentalis culture supernatant; concentrated (F-1), then DEAE-Sephacel at pH 7 (F-2) and at pH 5 (F-3)
T1 sequence (P24133 other isoform, or with tags, fused parts or gaps with the stated changes): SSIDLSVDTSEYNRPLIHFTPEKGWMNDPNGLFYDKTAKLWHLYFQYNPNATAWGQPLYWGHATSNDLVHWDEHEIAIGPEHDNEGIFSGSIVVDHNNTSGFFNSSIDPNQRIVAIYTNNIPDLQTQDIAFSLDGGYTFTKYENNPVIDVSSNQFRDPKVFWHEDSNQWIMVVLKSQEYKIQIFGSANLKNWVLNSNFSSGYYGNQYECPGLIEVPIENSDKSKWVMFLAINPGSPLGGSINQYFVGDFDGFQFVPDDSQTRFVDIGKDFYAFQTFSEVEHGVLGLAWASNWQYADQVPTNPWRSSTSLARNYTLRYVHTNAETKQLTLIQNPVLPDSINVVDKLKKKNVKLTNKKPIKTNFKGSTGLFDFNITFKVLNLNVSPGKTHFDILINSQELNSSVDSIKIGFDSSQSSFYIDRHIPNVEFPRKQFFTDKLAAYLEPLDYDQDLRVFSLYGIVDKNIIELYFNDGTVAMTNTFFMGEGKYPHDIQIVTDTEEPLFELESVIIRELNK
Protocol: The transglycosylation activity of the pure enzyme (fraction F-3) was assayed. A reaction was prepared using a high concentration of sucrose (510 g/l) and a final enzymatic activity in the reaction mixture of approximately 0.5 U/ml. […] It is seen that the profile of the obtained products is very similar in both cases, specifically the 6-kestose/1-kestose ratio that was obtained was 3.3.
After 144 hours of reaction, 42.6 g/l of FOS were obtained. The total percentage (w/w) of fructooligosaccharides was 8.4% this value being with respect to the total weight of carbohydrates in the medium.
A high concentration solution of sucrose ([…]) in 0.2 M sodium acetate buffer pH 5.6 was prepared. The fructofuranosidase was added until a final concentration in the reaction mixture of 0.5 U/ml (one unit U is the enzymatic activity corresponding to releasing a micromole of reducing sugars per minute, using 100 g/l of sucrose as substrate, in 0.2 M sodium acetate buffer pH 5.6, at 50° C.). The reaction mixture was incubated for 144 hours at 50° C., with orbital stirring at 700 rpm. Aliquots were extracted at different times, incubated for 5 minutes at 80° C. to inactivate the enzyme, diluted 1:2 (v/v) with water centrifuged for 5 minutes at 6000 rpm in an eppendorf tube with a 0.45 μm filter and analyzed by HPLC liquid chromatography. The profile of the products formed is seen in FIG. 7. Two trisaccharides were obtained: a majority trisaccharide, identified as 6-kestose, and another minority trisaccharide, identified as 1-kestose. At the final reaction time (144 h), the composition of the system was: 12.7% fructose, 14.80/glucose. 64.1% sucrose, 2.4% 1-kestose and 5.9% 6-kestose).

[2] = biological target: T2, fructofuranosidase of S. occidentalis (enzymatic concentrate F-1) (Schwanniomyces occidentalis, UniProt P24133); test: Transfructosidase (transglycosylation) activity of enzymatic concentrate F-1 on sucrose, HPLC; conditions: for Composition of the system: maximum point of FOS production (4 h), F-1 5 U/ml; for Composition of the system / Composition of the reaction mixture: 50° C.; for Composition of the reaction mixture: F1 5 U/ml, pH 5.6
T2 construct: the enzyme object of the invention is extracellularly released; endogenous in cells; host or cells: Schwanniomyces occidentalis (ATCC26077 named) grown in lactose medium; the cell-free supernatant was concentrated by 30 kDa tangential filtration and dialysed
T2 sequence (P24133 other isoform, or with tags, fused parts or gaps with the stated changes): as above
Protocol: The transglycosylation activity of the enzymatic concentrate obtained by ultrafiltration (F-1) was assayed. A reaction was prepared using a high concentration of sucrose (510 g/l), to favor the formation of glycosidic bonds in detriment of the hydrolysis reaction, and a final activity enzymatic in the reaction mixture of approximately 5 U/ml. […] On one hand, fructose (peak 1) and glucose (peak 2) are formed as hydrolytic products. On the other hand, two trisaccharides are obtained: a majority trisaccharide (peak 4), identified as 6-kestose [β-D-Fru-(2→6)-β-D-Fru-(2→1)-α-D-Glu] and another minority trisaccharide (peak 5), identified as 1-kestose. [β-D-Fru-(2→1)-β-D-Fru-(2→1)-α-D-Glu]. The sucrose that has not reacted corresponds to peak 3.
It is observed that the 6-kestose/1-kestose molar ratio reaches a maximum value of 3.3 between 4 and 6 hours of reaction.
A high concentration solution of sucrose (510 g/l) in 0.2 M sodium acetate buffer pH 5.6 was prepared. The fructofuranosidase was added until a final concentration in the reaction mixture of 5 U/ml (one unit U is the enzymatic activity corresponding to release of a micromole of reducing sugars per minute, using 100 g/l of sucrose as substrate, in 0.2 M sodium acetate buffer pH 5.6, at 50° C.). The reaction mixture was incubated for 24 hours at 50° C., with orbital stirring at 700 rpm. Aliquots were extracted at different times, incubated for 5 minutes at 80° C. to inactivate the enzyme, diluted 1:2 (v/v) with water, centrifuged for 5 minutes at 6000 rpm in an eppendorf tube with a 0.45 μm filter and analyzed by HPLC liquid chromatography. The profile of the products formed is seen in FIG. 5. It is observed that the fructofuranosidase of S. occidentalis has transfer activity (transfructosylation). Two trisaccharides are obtained: one majority trisaccharide, 6-kestose [3-D-Fru-(2→6)-β-D-Fru-(2→1)-α-D-Glu]and another minority trisaccharide, identified as 1-kestose [β-D-Fru-(2→1)-β-D-Fru-(2→1)-α-D-Glu]. In the maximum point of FOS production (4 h), the composition of the system was: 8.7% fructose, 11.9% glucose, 70.8% sucrose, 2.0% 1-kestose and 6.6% 6-kestose.

[3] = biological target: T3, Fructofuranosidase activity of the extracellular fraction of S. occidentalis (Schwanniomyces occidentalis, UniProt P24133); test: Fructofuranosidase activity of the extracellular fraction on different carbohydrates (glucose release, glucose oxidase-peroxidase); conditions: extracellular fraction concentrated (30 kDa filter) and dialysed; activity on the named substrate
T3 construct: the enzyme object of the invention is extracellularly released; endogenous in cells; host or cells: Schwanniomyces occidentalis (ATCC26077 named) grown in lactose medium; the cell-free supernatant was concentrated by 30 kDa tangential filtration and dialysed
T3 sequence (P24133 other isoform, or with tags, fused parts or gaps with the stated changes): as above
Protocol: (§1) The cell free fraction was obtained by centrifugation (F-0) of a culture of S. occidentalis ATCC26077 grown at 29° C. and 235 rpm. Fructofuranosidase activity was assayed in the latter, determining the glucose release on different substrates. A colorimetric assay and the standard methodology were used. The released glucose was quantified using the glucose oxidase-peroxidase coupled reaction: 0.4 ml of the solution to be determined was mixed with 0.1 ml of A:B (20:1) solution (A: 0.85 U/ml glucose oxidase, 0.40 U/ml peroxidase in sodium phosphate buffer pH 5; B: 0.6% O-dianisidine). It was incubated for 30 minutes at 37° C. and spectrophotometrically quantified at 450 nm. A standard glucose curve (0 to 100 μg/ml) was used. The fructofuranosidase activity unit is defined in μmol/ml min of glucose determined in the described conditions.
The cell free fraction, obtained by centrifugation, of a culture of S. occidentalis grown in lactose medium: 0.3% (w/v) YNB (yeast nitrogen base w/o amino acids, DIFCO), 3.5% (w/v) bactopeptone (DIFCO), 0.5% (w/v) KH2 PO4, 1% (w/v) MgSO4.7H2O, 1% (w/v) (NH4)SO4, and 2% lactose as a carbon source (R. D. Klein et al., “Purification and characterization of invertase from to novel industrial yeast, Schwanniomyces occidentalis”, Prep. Biochem, 1989, vol 19, pp. 293-319), grown until an optical density of 8.34 OD 660 nm, was concentrated using a tangential filtration system (30 kDa filter) followed by dialysis against 20 mM HCl-Tris pH 7 for 2 hours at a temperature of 4° C. and was assayed on different substrates.

[4] = biological target: T4, Fructofuranosidase activity of the F-3 fraction of S. occidentalis (Schwanniomyces occidentalis, UniProt P24133); test: Fructofuranosidase (hydrolytic) activity of the purified enzyme F-3 on different substrates; conditions: purified protein F-3; 1% substrate
T4 construct: the enzyme object of the invention is extracellularly released; endogenous in cells; host or cells: Schwanniomyces occidentalis culture supernatant; concentrated (F-1), then DEAE-Sephacel at pH 7 (F-2) and at pH 5 (F-3)
T4 sequence (P24133 other isoform, or with tags, fused parts or gaps with the stated changes): as above
Protocol: as §1
The hydrolytic activity of the purified enzyme (F-3), following the described method, was assayed on different substrates. The maximum activity level is obtained on sucrose. Activity on lactose, leucrose, turanose or palatinose was not observed.

Row | SMILES | Composition of the system [1] [%] | Composition of the system [2] [%] | Composition of the reaction mixture ([2]; reaction time 1 h) [grams/liter] | Composition of the reaction mixture ([2]; reaction time 1.5 h) [grams/liter] | Composition of the reaction mixture ([2]; reaction time 4 h) [grams/liter] | Composition of the reaction mixture ([2]; reaction time 6 h) [grams/liter] | Composition of the reaction mixture ([2]; reaction time 24 h) [grams/liter] | 6-kestose/1-kestose ratio ([1]; pure enzyme F-3 0.5 U/ml, 144 hours) | 6-kestose/1-kestose molar ratio, maximum value ([2]; between 4 and 6 hours of reaction, F-1) | Specific activity [3] [mU/μg] | Activity specific [4] [mU/μg]
1 | O=C(CO)[C@@H](O)[C@H](O)[C@H](O)CO [fructose] | 12.7 | 8.7 | 5.3 | 16.8 | 44.3 | 54.8 | 113.6 | – | – | – | –
2 | OC[C@H]1O[C@@](CO)(OC[C@H]2O[C@@](CO)(O[C@H]3O[C@H](CO)[C@@H](O)[C@H](O)[C@H]3O)[C@@H](O)[C@@H]2O)[C@@H](O)[C@@H]1O [6-kestose, β-D-Fru-(2→6)-β-D-Fru-(2→1)-α-D-Glu] | 5.9 | 6.6 | 5.4 | 12.7 | 33.5 | 31.0 | 10.6 | 3.3 | 3.3 | – | –
3 | OC[C@H]1O[C@@](CO)(O[C@H]2O[C@H](CO)[C@@H](O)[C@H](O)[C@H]2O)[C@@H](O)[C@@H]1O [sucrose, α-D-Glu-(1→2)-β-D-Fru] | 64.1 | 70.8 | 487.3 | 453.8 | 361.6 | 343.7 | 240.9 | – | – | 24 | 109
4 | OC[C@H]1O[C@@](CO)(OC[C@@]2(O[C@H]3O[C@H](CO)[C@@H](O)[C@H](O)[C@H]3O)O[C@H](CO)[C@@H](O)[C@@H]2O)[C@@H](O)[C@@H]1O [1-kestose, β-D-Fru-(2→1)-β-D-Fru-(2→1)-α-D-Glu] | 2.4 | 2.0 | 2.8 | 6.4 | 10.1 | 9.6 | 4.5 | – | – | 2.2 | 6.3

Source: patent publication US20090148907A1, “NOVEL FRUCTOFURANOSIDASE ACTIVITY FOR OBTAINING THE PREBIOTIC OLIGOSACCHARIDE 6-KESTOSE” (CONSEJO SUPERIOR DE INVESTIGACIONES CIENTIFICAS, priority 2005, published 2009)
